Read-outs that look alike come from different tables or passages of the source.
Tests used:
[1] = cited from earlier work
[2] = parameters: method as in PMID 33837574; settings: healthy volunteers, doses 15 to 1350 mg; cited from earlier work
[3] = Safety: treatment-emergent adverse events after single oral soticlestat 300 mg; format: in vivo, human
Procedure: (§1) Medical history and demographic data were recorded at screening. Twelve‐lead ECG, pulse rate, and BP were taken 2, 24, and 144 h after dosing or at early termination, and respiratory rate and temperature were taken 24 and 144 h after dosing or at early termination. Hematology, coagulation, serum chemistry, and urine analysis were conducted 48 and 144 h after dosing or at early termination. Blood samples for pharmacokinetic assessments of soticlestat and its metabolites M‐I and M3 were taken predose and 0.133, 0.25, 0.5, 0.75, 1, 1.5, 2, 4, 6, 8, 10, 14, 24, 36, 48, 72, 96, 120, and 144 h after dose administration or at early termination. Blood samples for plasma protein binding were taken predose and 0.5 and 10 h after dose administration. TEAE monitoring occurred throughout the study and at follow‐up.
The study's primary endpoints were the following pharmacokinetic parameters for soticlestat: C max; area under the total plasma concentration‐time curve from time 0 to infinity (AUC∞); and AUC from time 0 to time of the last quantifiable total plasma concentration (AUClast). The incidences of TEAEs and clinically significant abnormal values for laboratory evaluations, vital signs, ECG parameters, and Columbia‐Suicide Severity Rating Scale were secondary objectives. […]

[4] = target: cholesterol 24‐hydroxylase (CH24H); settings: no method or reference given; read-out: CH24H inhibition IC50; cited from earlier work
clinical [5] = format: in vitro ADME; settings: human, plasma, Plasma protein binding, mean
Procedure: Medical history and demographic data were recorded at screening. Twelve‐lead ECG, pulse rate, and BP were taken 2, 24, and 144 h after dosing or at early termination, and respiratory rate and temperature were taken 24 and 144 h after dosing or at early termination. Hematology, coagulation, serum chemistry, and urine analysis were conducted 48 and 144 h after dosing or at early termination. […] Blood samples for plasma protein binding were taken predose and 0.5 and 10 h after dose administration. TEAE monitoring occurred throughout the study and at follow‐up. The study's primary endpoints were the following pharmacokinetic parameters for soticlestat: C max; area under the total plasma concentration‐time curve from time 0 to infinity (AUC∞); and AUC from time 0 to time of the last quantifiable total plasma concentration (AUClast). The incidences of TEAEs and clinically significant abnormal values for laboratory evaluations, vital signs, ECG parameters, and Columbia‐Suicide Severity Rating Scale were secondary objectives. […] Total soticlestat, M‐I, and M3 concentrations and unbound soticlestat concentrations were determined using liquid chromatography–tandem mass spectrometry by CMIC, Inc. (Hoffman Estates, IL, USA). Unbound plasma soticlestat concentrations were measured using ultrafiltration (by CMIC, Inc.). Pharmacokinetic parameters were calculated using Phoenix® WinNonlin® version 8.3.4.

plasma protein = system: plasma protein; parameters: method as in PMID 37771051; settings: human, cited from earlier work
clinical [6] = settings: human, in vivo
Procedure: This was a phase 1, open‐label study of a single dose of oral soticlestat 300 mg with three treatment arms (NCT05098054)[25]: moderate hepatic impairment (Child‐Pugh B; score ≥7 and ≤9; anticipated enrollment n = 8); mild hepatic impairment (Child‐Pugh A; score ≥5 and ≤6; n = 8); and normal hepatic function (n = 12–24). Screening occurred at an outpatient visit up to 28 days before dosing. Participants were admitted to the clinic the day before dosing and remained until day 7. Follow‐up phone contact occurred 14 ± 2 days after dosing.
The moderate hepatic impairment arm was conducted first, followed by the matched normal hepatic function arm. After enrollment of the mild hepatic impairment arm, up to 12 additional participants could be enrolled for the matched normal hepatic function group to ensure a minimum of 12 participants with normal hepatic function and matching the mean of the mild hepatic impairment arm by age, sex, and BMI. Soticlestat was taken as three 100 mg immediate‐release tablets on day 1 with approximately 240 mL water under fasting conditions (≥10 h before dosing and 4 h post‐dose).
as §1
The study's primary endpoints were the following pharmacokinetic parameters for soticlestat: C max; area under the total plasma concentration‐time curve from time 0 to infinity (AUC∞); and AUC from time 0 to time of the last quantifiable total plasma concentration (AUClast). The incidences of TEAEs and clinically significant abnormal values for laboratory evaluations, vital signs, ECG parameters, and Columbia‐Suicide Severity Rating Scale were secondary objectives. Exploratory endpoints were plasma pharmacokinetic parameters of soticlestat metabolites M‐I and M3 (C max, AUC∞, AUClast, metabolite‐to‐parent ratio [MPR] C max, MPR AUClast, and MPR AUC∞); additional plasma pharmacokinetic parameters of soticlestat and the metabolites M‐I and M3 (time of first occurrence of C max [t max] and terminal disposition phase half‐life [t ½z]); additional plasma pharmacokinetic parameters of soticlestat (apparent clearance after extravascular administration, calculated using the observed value of the last quantifiable total plasma concentration [CL/F]; apparent volume of distribution during the terminal disposition phase after extravascular administration, calculated using the observed value of the last quantifiable total plasma concentration [Vz/F]); and plasma protein binding of soticlestat: fraction of unbound soticlestat.
Total soticlestat, M‐I, and M3 concentrations and unbound soticlestat concentrations were determined using liquid chromatography–tandem mass spectrometry by CMIC, Inc. (Hoffman Estates, IL, USA). Unbound plasma soticlestat concentrations were measured using ultrafiltration (by CMIC, Inc.). Pharmacokinetic parameters were calculated using Phoenix® WinNonlin® version 8.3.4.
Descriptive statistics were derived for the concentration data: number of observations (n), arithmetic mean (mean), standard deviation (SD), arithmetic percent coefficient of variation (CV%), standard error of the mean, minimum, median, and maximum. […]

[7] = 300 mg dose of [14C]soticlestat

For `O=C(c1cccnc1-c1ccncc1)N1CCC(O)(Cc2ccccc2)CC1` [soticlestat], the “Administered dose recovered in urine as this substance” value [1, 7] is listed as 0.1%, the “Recovery of total radioactivity in feces” value [1, 7] is listed as 2.7% and the “Recovery of total radioactivity in urine” value [1, 7] is listed as 94.8%. For the same molecule, the Excreted in urine [1] was less than 1%, the “Share of soticlestat metabolism accounted for by UGT1A9 and UGT2B4” value [1] was “approximately 90%” and the Absolute bioavailability ([1]; healthy volunteers) was 12.6%. For the same molecule, the “Mean plasma maximum concentration (Cmax)” value [2] was 43.5 to 7950 ng/mL, the Terminal elimination half-life [2] was 49.2 to 430 min and the “TEAEs based on serum chemistry, hematology, coagulation, urinalysis, vital signs, ECG, or Columbia-Suicide Severity Rating Scale” value ([3]; all study arms) was “no TEAEs”. For the same molecule, the “Number of TEAEs considered study drug related” value ([3]; in vivo) was “two”, the IC50 [4] was 4.5 nM and the fraction unbound (clinical [5]) was 0.175. The “In vitro plasma protein binding” value (plasma protein; 0.1 μg/mL) was 94.0%, the “In vitro plasma protein binding” value (plasma protein; 1 μg/mL) was 93.4% and the “In vitro plasma protein binding” value (plasma protein; 10 μg/mL) was 70.6%. The “Main binding protein in plasma” value (plasma protein) was “mainly bound to human α‐1‐acid glycoprotein”, the “Increase in total plasma exposure vs healthy matched participants (preliminary analysis)” value (clinical [6]) was “approximately 3 fold” and the “Total plasma AUClast higher vs healthy participants (preliminary analysis)” value (clinical [6]) was “approximately 3 fold”. For the same molecule, the “Total plasma AUC∞ higher vs healthy participants (preliminary analysis)” value (clinical [6]) was “approximately 3 fold”, the Vd/F (clinical [6]; po, 300 mg, Mean ± SD Vz/F, total plasma) was 890 ± 1900 L and the half-life (clinical [6]; po, 300 mg, Mean ± SD t½z, total plasma) was 219 ± 58.5 min. The Tmax (clinical [6]; po, 300 mg, Median (range) tmax, total plasma) was 30 min.
